Measurements: patent publication US20160184459A1, “CANCER CELL SPECIFIC IMAGING PROBES AND METHODS OF USE” (THE RESEARCH FOUNDATION FOR THE STATE UNIVERSITY OF NEW YORK, priority 2013, published 2016)

Legend:
[1] = test system: pancreatic cancer cells (BXPC-3 and MiaPaca-2); test: Cell viability assay, pancreatic cancer cells; type: cell-based, human; conditions: MTS
Method: FIG. 16. Anticancer effect of BKAc-Puro on pancreatic cell lines. The cell lines were treated with DMSO (vehicle), BKAc-Puro (54 μM), or Puro (4.2 μM) for 5 d followed by MTS assay. Normal Eph4 (non-pancreatic) cells are shown as control. Data represent mean values of triplicate measurements±s.d.
FIG. 18. Selective cytotoxicity by BKAc-Puro on pancreatic cancer cells. Pancreatic cancer (BXPC-3 and Miapaca-2), colon cancer (HCT116 as a positive control sensitive to the drug), and normal colon (CCD841-CoN as a negative control) cells were grown and analyzed as in FIG. 13. […]
(§1) Cell number was determined by cell counting using improved Neubauer hemacytometer. Cell viability was calculated as the number of viable cells divided by the total number of cells using Trypan Blue Stain (Invitrogen) to distinguish non-viable cells. […] After additional 2-3 h incubation, the absorbance of the formazan at 490 nm was measured by the microplate reader. […] Determination of non-viable cells using PI staining was performed by adding 1 μg/ml of PI solution (Sigma) to the cell culture, prior to the examination under fluorescence microscopy (Axiovert 3, Carl Zeiss) through a×32 objective equipped with a digital imaging processor (Infinity 3, Lumenera).

[2] = test system: non-malignant Caco-2 cells; test: MTS cell viability assay, Caco-2; type: cell-based, human
Method: FIG. 13. Inhibition of cell viability by BKAc-Puro is presented in dose-response curve format for the same cell lines as in FIG. 8. The cell lines were treated with DMSO or the indicated doses of agent (4.22, 8.44, 16.9, 33.8, 67.5, or 135 μM) for 5 d followed by MTS assay. Data represent mean values of triplicate measurements±s.d. (n=3). IC50 values were fit by logistic regression.
FIG. 14. Inhibition of cell viability by parental Puro. The cell lines were treated with the indicated doses of Puro (0, 1.1, 2.1, 4.2, or 8.4 μM) for 3 d followed by MTS assay. Data represent mean values of triplicate measurements±s.d.
Cell number was determined by cell counting using improved Neubauer hemacytometer. Cell viability was calculated as the number of viable cells divided by the total number of cells using Trypan Blue Stain (Invitrogen) to distinguish non-viable cells. Data were obtained from duplicated samples with quadruplicate measurements. MTS based cell viability assay was performed using CellTiter 96 Aqueous Cell Proliferation Assay (Promega) according to the manufacturer's instruction. Either 1 μl of DMSO alone or variable concentrations of BKAc-Puro or Puro in DMSO were added to the cell lines seeded at 5×10^4 cells per well in 96-well tissue culture plates in 100 μl of the growth medium, followed by 3-5 d incubation at 37° C. with 5% CO2 atmosphere. Then 20 μl of the MTS reagent was added to each well. After additional 2-3 h incubation, the absorbance of the formazan at 490 nm was measured by the microplate reader. Percent cell viability was expressed relative to the wells containing cells treated with DMSO alone. Data were obtained from triplicate measurements. […] Determination of non-viable cells using PI staining was performed by adding 1 μg/ml of PI solution (Sigma) to the cell culture, prior to the examination under fluorescence microscopy (Axiovert 3, Carl Zeiss) through a×32 objective equipped with a digital imaging processor (Infinity 3, Lumenera).

RPMI8226 cells = test: Live single cell detection by FACS, cell surface Puro; type: cell-based; conditions: 20 μg/ml, 16 hr, anti-puro antibody (12D10) Alexa 647, FACS
Method: (§2) Cell surface detection of Puro by anti-puro antibody (12D10) conjugated to Alexa 647 (EMD Millipore). RPMI8226 cells were treated with Puro (0.25 μg/ml) or Boc-KAc-Puro (20 μg/ml) for 16 hr then harvested by centrifugation followed by two times wash using cold washing solution (0.1% BSA in PBS). Cells were resuspended in the same solution and incubated 30 min on ice with Alexa 647 conjugated mouse IgG2a anti-puromycin antibody (12D10). Cells were washed twice with the solution followed by FACS analysis (BD FACSCalibur). The specificity of the antibody was confirmed by using isotype control antibody (mouse IgG2a conjugated with Alexa 647).

ARH-77 cells = test: Live single cell imaging by fluorescence microscopy, cell surface Puro; type: cell-based; conditions: 20 μg/ml, 16 hr, anti-puro antibody (12D10) Alexa 647, fluorescence microscopy
Method: as §2, with “ARH-77” for “RPMI8226”, “fluorescence microscope analysis.” for “FACS analysis (BD FACSCalibur).”

[3] = test system: Puro-incorporated proteins in HCT116, HT29, CCD841-CoN and Caco-2 cells; test: Immunoblotting of Puro-incorporated proteins in cell lysates; type: cell-based, human; conditions: 16.9 μM, 20 h
Method: (§3) FIG. 27. Levels of Puro-incorporated proteins in the cells were monitored by immunoblotting. Indicated cell lines were treated either with vehicle control DMSO or Boc-KAc-Puro (16.9 μM) in the presence or absence of TSA (0.5 μM) for 20 h, followed by preparation of cell lysates. The lower panel (anti-α-Tubulin) serves as a loading control.
as §3, with “28.” for “27.”, “Puro (2.1” for “Boc-KAc-Puro (16.9”, “16” for “20”, “lysates. […]” for “lysates.”
Cultured cells or tissue samples were sonicated in RIPA lysis buffer (1% NP-40, 0.1% SDS, 50 mM Tris-HCl pH 7.4, 150 mM NaCl, 0.5% sodium deoxycholate, 1 mM EDTA) supplemented with PMSF and protease inhibitor cocktail (Roche) on ice followed by clarification. Protein lysates were separated on sodium dodecyl sulfate-polyacrylamide gels and transferred onto nitrocellulose membranes (Whatman). The primary antibodies used were anti-puromycin (3RH11, KeraFAST) and anti-α-tubulin (Sigma-Aldrich). Proteins of interest were detected with anti-mouse secondary antibody by chemiluminescence (ECL Kit, GE Healthcare Life Sciences).

[4] = test system: breast cancer cells (MCF-7 and MDA-MB-231); test: PI staining cytotoxicity, breast cancer cells; type: cell-based
Method: FIG. 17. Selective cytotoxicity by BKAc-Puro on breast cancer cells. Normal mammary gland epithelial cells (Eph4) and breast cancer cells (MCF-7 and MDA-MB-231) were grown and analyzed as in FIG. 10. BF, bright field. PI, fluorescent PI channel. BKAc-Puro can selectively cause cell death in breast cancer cells (MCF-7 and MDA-MB-231) while leaving normal Eph4 cells unharmed.
as §1, with “cells. Data were obtained from duplicated samples with quadruplicate measurements. MTS based cell viability assay was performed using CellTiter 96 Aqueous Cell Proliferation Assay (Promega) according to the manufacturer's instruction.” for “cells.”

With `COc1ccc(CC(NC(=O)C(CCCCNC(C)=O)NC(=O)OC(C)(C)C)C(=O)NC2C(O)[C@H](n3cnc4c(N(C)C)ncnc43)O[C@@H]2CO)cc1` (stereo partly drawn) [BKAc-Puro, N-[3′-(α-Amino-p-methoxyhydrocinnamamido)-3′-deoxy-N,N-dimethyldenosinyl)-N-α-(t-butoxycarbonyl]-N-ε-acetyl-L-lysineamide] the “Effect on cell viability” value ([1]; 54 μM, 5 d) was “also effective”, the Cell death ([1]; dose-response) was “effectively caused cell death” and the “Highest inactive dose relative to dose of parental Puro effective to Caco-2 cells” value ([2]; 135 μM BKAc-Puro vs parental Puro) was “more than 30 times”. For the same compound, the IC50 ([2]; Homo sapiens, Caco-2, 120 h, MTS, 5 d, sufficient inhibition not achieved with doses up to 135 μM) was > 135 µM, the “Puro presentation on cell surface proteins” value (RPMI8226 cells) was “confirmed” and the “Puro presentation on cell surface proteins” value (ARH-77 cells) was “confirmed”. For the same compound, the “Intensity of Puro incorporation, malignant versus normal and non-malignant cells” value [3] was “substantially greater in malignant cancer cells”, the “Intensity of Puro incorporation in the presence of TSA” value ([3]; TSA 0.5 μM) was “compromised intensity” and the Cell death [4] was “selectively caused cell death”.
